# Data taken from ChEMBL document CHEMBL5058649, “Data for DCP probe BAY 1816032” (2022).
# Tests used:
# [1] = molecular target: Tyrosine-protein kinase ABL2 (Homo sapiens) (UniProt P42684); assay: ABL2 DiscoveRx kinase panel; settings: Compound concentration 1.0 uM
# [2] = molecular target: Serine/threonine-protein kinase 26 (Homo sapiens) (UniProt Q9P289); assay: MST4 DiscoveRx kinase panel; settings: Compound concentration 1.0 uM
# [3] = molecular target: Mitogen-activated protein kinase kinase kinase 15 (Homo sapiens) (UniProt Q6ZN16); assay: MAP3K15 DiscoveRx kinase panel; settings: Compound concentration 1.0 uM
# [4] = molecular target: Alpha-1D adrenergic receptor (Homo sapiens) (UniProt P25100); assay: Inhibition of Adrenergic alpha1D at 10 µM in the Eurofins-Panlabs radioligand binding assay (Eurofins_assay_203400); settings: Compound concentration 10.0 uM
# Alpha-1D adrenergic receptor (Homo sapiens), sequence (P25100 whole entry, canonical isoform): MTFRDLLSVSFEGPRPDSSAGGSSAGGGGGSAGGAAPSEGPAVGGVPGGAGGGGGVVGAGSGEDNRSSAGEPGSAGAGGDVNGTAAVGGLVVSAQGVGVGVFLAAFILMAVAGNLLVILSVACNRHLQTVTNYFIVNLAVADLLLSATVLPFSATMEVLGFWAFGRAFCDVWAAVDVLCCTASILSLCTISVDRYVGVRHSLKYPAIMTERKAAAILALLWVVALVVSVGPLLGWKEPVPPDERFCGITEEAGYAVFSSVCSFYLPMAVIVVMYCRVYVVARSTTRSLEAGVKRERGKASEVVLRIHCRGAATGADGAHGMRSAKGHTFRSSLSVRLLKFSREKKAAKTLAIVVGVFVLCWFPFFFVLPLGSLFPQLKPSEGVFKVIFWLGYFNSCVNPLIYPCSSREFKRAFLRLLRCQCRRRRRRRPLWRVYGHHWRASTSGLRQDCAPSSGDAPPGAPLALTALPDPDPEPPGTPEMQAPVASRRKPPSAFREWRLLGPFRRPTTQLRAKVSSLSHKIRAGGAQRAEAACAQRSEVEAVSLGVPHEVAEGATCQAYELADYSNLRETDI
# [5] = molecular target: Casein kinase I isoform gamma-3 (Homo sapiens) (UniProt Q9Y6M4); assay: CSNK1G3 DiscoveRx kinase panel; settings: Compound concentration 1.0 uM
# [6] = molecular target: Serine/threonine-protein kinase ICK (Homo sapiens) (UniProt Q9UPZ9); assay: ICK DiscoveRx kinase panel; settings: Compound concentration 1.0 uM
# [7] = molecular target: Serine/threonine-protein kinase PLK4 (Homo sapiens) (UniProt O00444); assay: PLK4 DiscoveRx kinase panel; settings: Compound concentration 1.0 uM
# [8] = molecular target: Alpha-1A adrenergic receptor (Homo sapiens) (UniProt P35348); settings: Rattus norvegicus; Compound concentration 10.0 uM
# Alpha-1A adrenergic receptor (Homo sapiens), sequence (P35348 whole entry): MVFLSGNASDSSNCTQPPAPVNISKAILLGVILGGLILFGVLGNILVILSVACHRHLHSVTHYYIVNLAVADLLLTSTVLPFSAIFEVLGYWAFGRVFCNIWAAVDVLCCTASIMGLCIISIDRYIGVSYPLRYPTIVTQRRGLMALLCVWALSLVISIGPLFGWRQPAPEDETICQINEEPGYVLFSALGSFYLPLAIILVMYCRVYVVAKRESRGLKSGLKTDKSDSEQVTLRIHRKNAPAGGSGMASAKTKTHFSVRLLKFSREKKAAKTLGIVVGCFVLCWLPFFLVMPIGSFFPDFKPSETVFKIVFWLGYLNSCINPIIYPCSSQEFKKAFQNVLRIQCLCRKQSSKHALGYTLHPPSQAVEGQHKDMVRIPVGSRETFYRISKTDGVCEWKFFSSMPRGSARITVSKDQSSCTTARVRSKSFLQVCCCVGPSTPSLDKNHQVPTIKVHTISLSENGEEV
# HeLa = assay: HeLa (presence of 3 nM Paclitaxel) cell line Proliferation assay; format: functional, Homo sapiens; settings: time 4 day
# [9] = molecular target: Phosphatidylinositol 4-phosphate 5-kinase type-1 alpha (Homo sapiens) (UniProt Q99755); assay: PIP5K1A DiscoveRx kinase panel; settings: Compound concentration 1.0 uM
# [10] = molecular target: Voltage-dependent N-type calcium channel subunit alpha-1B (Homo sapiens) (UniProt Q00975); assay: Inhibition of Calcium Channel N-Type at 10 µM in the Eurofins-Panlabs radioligand binding assay (Eurofins_assay_216000); settings: Rattus norvegicus; Compound concentration 10.0 uM
# [11] = molecular target: Phosphodiesterase 3 (Homo sapiens) (UniProt Q14432+Q13370); assay: Inhibition of Phosphodiesterase PDE3 at compound concentration of 10.0 uM in the Eurofins-Panlabs enzyme assay (Eurofins_assay_152000); format: protein assay; design: substrate with concentration 1.01 uM [3H] cAMP + cAMP, incubation time 20 min, incubation temperature 25 C; settings: Compound concentration 10.0 uM
# [12] = molecular target: Kappa-type opioid receptor (Homo sapiens) (UniProt P41145); settings: Compound concentration 10.0 uM
# Kappa-type opioid receptor (Homo sapiens), sequence (P41145 whole entry): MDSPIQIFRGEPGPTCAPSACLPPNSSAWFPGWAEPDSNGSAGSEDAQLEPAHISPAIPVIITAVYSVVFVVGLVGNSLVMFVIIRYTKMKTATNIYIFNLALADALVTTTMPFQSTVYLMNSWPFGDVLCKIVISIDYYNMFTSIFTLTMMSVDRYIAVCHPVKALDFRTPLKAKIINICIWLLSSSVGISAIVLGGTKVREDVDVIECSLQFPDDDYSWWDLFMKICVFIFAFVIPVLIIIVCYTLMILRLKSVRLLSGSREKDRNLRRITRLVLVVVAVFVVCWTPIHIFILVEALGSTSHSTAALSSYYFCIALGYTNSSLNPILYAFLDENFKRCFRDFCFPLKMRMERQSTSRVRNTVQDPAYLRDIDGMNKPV
# [13] = molecular target: Tyrosine-protein kinase BTK (Homo sapiens) (UniProt Q06187); assay: BTK DiscoveRx kinase panel; settings: Compound concentration 1.0 uM
# [14] = molecular target: Muscarinic acetylcholine receptor M1 (Homo sapiens) (UniProt P11229); assay: Muscarinic M1 Eurofins-Panlabs radioligand binding assay; settings: Compound concentration 10.0 uM
# [15] = molecular target: Rho-associated protein kinase 1 (Homo sapiens) (UniProt Q13464); assay: ROCK1 DiscoveRx kinase panel; settings: Compound concentration 1.0 uM
# [16] = molecular target: Wee1-like protein kinase 2 (Homo sapiens) (UniProt P0C1S8); assay: WEE2 DiscoveRx kinase panel; settings: Compound concentration 1.0 uM
# [17] = molecular target: Serine/threonine-protein kinase Sgk3 (Homo sapiens) (UniProt Q96BR1); assay: SGK3 DiscoveRx kinase panel; settings: Compound concentration 1.0 uM
# Serine/threonine-protein kinase Sgk3 (Homo sapiens), sequence (Q96BR1 whole entry): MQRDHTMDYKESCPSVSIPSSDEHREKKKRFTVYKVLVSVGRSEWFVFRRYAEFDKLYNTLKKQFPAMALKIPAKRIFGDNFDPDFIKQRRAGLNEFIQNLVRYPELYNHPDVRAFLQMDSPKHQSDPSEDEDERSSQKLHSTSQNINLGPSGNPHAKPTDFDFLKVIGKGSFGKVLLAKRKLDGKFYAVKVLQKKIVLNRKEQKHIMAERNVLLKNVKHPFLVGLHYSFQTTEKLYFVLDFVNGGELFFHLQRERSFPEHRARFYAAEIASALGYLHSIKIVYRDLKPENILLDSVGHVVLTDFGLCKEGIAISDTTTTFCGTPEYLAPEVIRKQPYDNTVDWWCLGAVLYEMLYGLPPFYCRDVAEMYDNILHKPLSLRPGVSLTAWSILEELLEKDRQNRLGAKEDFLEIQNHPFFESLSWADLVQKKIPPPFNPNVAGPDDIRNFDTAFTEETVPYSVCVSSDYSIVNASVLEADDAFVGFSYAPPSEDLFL
# [18] = molecular target: Receptor-type tyrosine-protein kinase FLT3 (Homo sapiens) (UniProt P36888); assay: FLT3 DiscoveRx kinase panel; settings: Compound concentration 1.0 uM
# [19] = molecular target: Serine/threonine-protein kinase VRK2 (Homo sapiens) (UniProt Q86Y07); assay: VRK2 DiscoveRx kinase panel; settings: Compound concentration 1.0 uM
# [20] = molecular target: Dual specificity protein kinase CLK2 (Homo sapiens) (UniProt P49760); assay: CLK2 DiscoveRx kinase panel; settings: Compound concentration 1.0 uM
# [21] = molecular target: Calcium/calmodulin-dependent protein kinase type II subunit delta (Homo sapiens) (UniProt Q13557); assay: CAMK2D DiscoveRx kinase panel; settings: Compound concentration 1.0 uM
# [22] = molecular target: Glycogen synthase kinase-3 alpha (Homo sapiens, UniProt P49840); assay: GSK3A DiscoveRx kinase panel
# [23] = molecular target: Myosin light chain kinase family member 4 (Homo sapiens) (UniProt Q86YV6); assay: MYLK4 DiscoveRx kinase panel; settings: Compound concentration 1.0 uM
# Myosin light chain kinase family member 4 (Homo sapiens), sequence (Q86YV6 whole entry): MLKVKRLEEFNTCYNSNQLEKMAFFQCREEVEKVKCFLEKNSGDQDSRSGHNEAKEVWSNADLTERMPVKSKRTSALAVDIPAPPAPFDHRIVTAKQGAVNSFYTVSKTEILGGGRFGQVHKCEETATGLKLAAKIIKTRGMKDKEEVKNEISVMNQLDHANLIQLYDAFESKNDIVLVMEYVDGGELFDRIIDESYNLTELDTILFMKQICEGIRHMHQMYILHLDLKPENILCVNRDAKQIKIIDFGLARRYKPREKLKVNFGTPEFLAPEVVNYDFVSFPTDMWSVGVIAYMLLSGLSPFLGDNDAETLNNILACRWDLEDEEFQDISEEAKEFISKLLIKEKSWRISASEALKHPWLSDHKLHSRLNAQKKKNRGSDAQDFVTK
# [24] = molecular target: GABA-A receptor; anion channel (Rattus norvegicus) (UniProt O09028+P15431+P18506+P18508+P19969+P20236+P23574+P23576+P28471+P28473+P30191+P62813+P63079+P63138+Q91ZM7+Q9ES14); settings: Compound concentration 10.0 uM
# [25] = molecular target: Testis-specific serine/threonine-protein kinase 3 (Homo sapiens) (UniProt Q96PN8); assay: TSSK3 DiscoveRx kinase panel; settings: Compound concentration 1.0 uM
# [26] = molecular target: Leucine-rich repeat serine/threonine-protein kinase 2 (Homo sapiens) (UniProt Q5S007); assay: LRRK2 DiscoveRx kinase panel; settings: Compound concentration 1.0 uM
# [27] = molecular target: Sodium-dependent dopamine transporter (Homo sapiens, UniProt Q01959); settings: Compound concentration 10.0 uM
# [28] = molecular target: Beta-adrenergic receptor kinase 1 (Homo sapiens) (UniProt P25098); assay: GRK2 DiscoveRx kinase panel; settings: Compound concentration 1.0 uM
# Beta-adrenergic receptor kinase 1 (Homo sapiens), sequence (P25098 whole entry): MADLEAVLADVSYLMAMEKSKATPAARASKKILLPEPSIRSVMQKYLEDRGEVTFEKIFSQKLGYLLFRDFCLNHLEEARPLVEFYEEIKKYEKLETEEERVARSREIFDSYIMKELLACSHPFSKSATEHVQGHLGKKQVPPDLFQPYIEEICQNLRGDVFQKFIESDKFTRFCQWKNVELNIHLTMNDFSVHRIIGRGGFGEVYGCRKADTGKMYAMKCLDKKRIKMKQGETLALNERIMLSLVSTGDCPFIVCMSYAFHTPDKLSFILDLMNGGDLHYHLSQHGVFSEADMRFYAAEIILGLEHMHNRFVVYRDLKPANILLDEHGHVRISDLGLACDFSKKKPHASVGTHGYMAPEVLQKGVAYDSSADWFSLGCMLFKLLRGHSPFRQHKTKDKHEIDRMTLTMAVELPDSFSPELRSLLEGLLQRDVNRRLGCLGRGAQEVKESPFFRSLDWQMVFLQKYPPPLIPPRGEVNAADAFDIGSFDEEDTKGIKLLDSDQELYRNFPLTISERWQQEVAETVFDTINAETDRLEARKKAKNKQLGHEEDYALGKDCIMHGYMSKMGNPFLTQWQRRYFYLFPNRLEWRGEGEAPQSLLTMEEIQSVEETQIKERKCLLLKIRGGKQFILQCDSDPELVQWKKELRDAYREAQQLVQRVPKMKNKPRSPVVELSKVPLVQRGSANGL
# [29] = molecular target: Bone morphogenetic protein receptor type-1B (Homo sapiens) (UniProt O00238); assay: BMPR1B DiscoveRx kinase panel; settings: Compound concentration 1.0 uM
# [30] = molecular target: Ribosomal protein S6 kinase alpha-5 (Homo sapiens) (UniProt O75582); assay: RPS6KA5(Kin.Dom.1-N-terminal) DiscoveRx kinase panel; settings: Compound concentration 1.0 uM
# [31] = molecular target: Mitogen-activated protein kinase kinase kinase 13 (Homo sapiens) (UniProt O43283); assay: LZK DiscoveRx kinase panel; settings: Compound concentration 1.0 uM
# MDA-MB-468 = assay: MDA-MB-468 cell line Proliferation assay; format: functional, Homo sapiens; settings: time 4 day
# [32] = molecular target: Mitogen-activated protein kinase kinase kinase 1 (Homo sapiens) (UniProt Q13233); assay: MAP3K1 DiscoveRx kinase panel; settings: Compound concentration 1.0 uM
# [33] = molecular target: Phosphatidylinositol 4-kinase beta (Homo sapiens) (UniProt Q9UBF8); assay: PIK4CB DiscoveRx kinase panel; settings: Compound concentration 1.0 uM
# [34] = molecular target: Casein kinase I isoform alpha-like (Homo sapiens) (UniProt Q8N752); assay: CSNK1A1L DiscoveRx kinase panel; settings: Compound concentration 1.0 uM
# Casein kinase I isoform alpha-like (Homo sapiens), sequence (Q8N752 whole entry, canonical isoform): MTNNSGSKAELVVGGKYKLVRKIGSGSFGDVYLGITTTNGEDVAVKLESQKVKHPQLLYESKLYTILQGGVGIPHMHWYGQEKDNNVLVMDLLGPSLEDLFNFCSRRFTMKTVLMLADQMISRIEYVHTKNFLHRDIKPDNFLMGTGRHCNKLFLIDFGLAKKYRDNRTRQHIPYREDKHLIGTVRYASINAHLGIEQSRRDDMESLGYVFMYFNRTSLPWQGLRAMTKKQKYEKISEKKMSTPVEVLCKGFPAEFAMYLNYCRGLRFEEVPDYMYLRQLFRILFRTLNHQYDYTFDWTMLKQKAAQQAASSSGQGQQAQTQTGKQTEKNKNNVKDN
# [35] = molecular target: Serine/threonine-protein kinase 33 (Homo sapiens) (UniProt Q9BYT3); assay: STK33 DiscoveRx kinase panel; settings: Compound concentration 1.0 uM
# Serine/threonine-protein kinase 33 (Homo sapiens), sequence (Q9BYT3 whole entry, looked up): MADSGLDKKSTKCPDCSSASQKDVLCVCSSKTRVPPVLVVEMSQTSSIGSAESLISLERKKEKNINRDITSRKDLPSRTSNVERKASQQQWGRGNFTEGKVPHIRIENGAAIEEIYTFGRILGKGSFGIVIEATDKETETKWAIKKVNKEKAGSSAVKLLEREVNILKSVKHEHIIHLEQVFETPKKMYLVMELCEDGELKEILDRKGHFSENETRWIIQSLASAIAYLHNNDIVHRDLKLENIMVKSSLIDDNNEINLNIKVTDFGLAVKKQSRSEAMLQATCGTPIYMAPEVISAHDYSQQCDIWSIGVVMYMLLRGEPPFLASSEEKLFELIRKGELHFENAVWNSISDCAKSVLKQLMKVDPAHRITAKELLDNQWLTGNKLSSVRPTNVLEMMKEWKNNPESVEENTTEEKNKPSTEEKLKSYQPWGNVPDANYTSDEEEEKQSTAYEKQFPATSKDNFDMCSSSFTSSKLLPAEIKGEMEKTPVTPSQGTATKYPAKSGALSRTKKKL
# [36] = molecular target: Adenosine receptor A2a (Homo sapiens) (UniProt P29274); settings: Compound concentration 10.0 uM
# [37] = molecular target: Mitogen-activated protein kinase kinase kinase 12 (Homo sapiens) (UniProt Q12852); assay: DLK DiscoveRx kinase panel; settings: Compound concentration 1.0 uM
# [38] = molecular target: Interleukin-1 receptor-associated kinase 3 (Homo sapiens) (UniProt Q9Y616); assay: IRAK3 DiscoveRx kinase panel; settings: Compound concentration 1.0 uM
# [39] = molecular target: Myosin light chain kinase (Homo sapiens) (UniProt Q32MK0); assay: MLCK DiscoveRx kinase panel; settings: Compound concentration 1.0 uM
# [40] = molecular target: Mitogen-activated protein kinase 6 (Homo sapiens) (UniProt Q16659); assay: ERK3 DiscoveRx kinase panel; settings: Compound concentration 1.0 uM
# [41] = molecular target: Casein kinase I isoform alpha (Homo sapiens) (UniProt P48729); assay: CSNK1A1 DiscoveRx kinase panel; settings: Compound concentration 1.0 uM
# MDA-MB-453 = assay: MDA-MB-453 cell line Proliferation assay; format: functional, Homo sapiens; settings: time 4 day
# [42] = molecular target: Melanocyte-stimulating hormone receptor (Homo sapiens) (UniProt Q01726); assay: Melanocortin MC1 Eurofins-Panlabs radioligand binding assay; settings: Compound concentration 10.0 uM
# [43] = molecular target: Cyclin-dependent kinase 8 (Homo sapiens) (UniProt P49336); assay: CDK8 DiscoveRx kinase panel; settings: Compound concentration 1.0 uM
# [44] = molecular target: Serine/threonine-protein kinase 10 (Homo sapiens, UniProt O94804); assay: LOK DiscoveRx kinase panel
# Tyrosine-protein kinase ABL2 (Homo sapiens), sequence (P42684 whole entry): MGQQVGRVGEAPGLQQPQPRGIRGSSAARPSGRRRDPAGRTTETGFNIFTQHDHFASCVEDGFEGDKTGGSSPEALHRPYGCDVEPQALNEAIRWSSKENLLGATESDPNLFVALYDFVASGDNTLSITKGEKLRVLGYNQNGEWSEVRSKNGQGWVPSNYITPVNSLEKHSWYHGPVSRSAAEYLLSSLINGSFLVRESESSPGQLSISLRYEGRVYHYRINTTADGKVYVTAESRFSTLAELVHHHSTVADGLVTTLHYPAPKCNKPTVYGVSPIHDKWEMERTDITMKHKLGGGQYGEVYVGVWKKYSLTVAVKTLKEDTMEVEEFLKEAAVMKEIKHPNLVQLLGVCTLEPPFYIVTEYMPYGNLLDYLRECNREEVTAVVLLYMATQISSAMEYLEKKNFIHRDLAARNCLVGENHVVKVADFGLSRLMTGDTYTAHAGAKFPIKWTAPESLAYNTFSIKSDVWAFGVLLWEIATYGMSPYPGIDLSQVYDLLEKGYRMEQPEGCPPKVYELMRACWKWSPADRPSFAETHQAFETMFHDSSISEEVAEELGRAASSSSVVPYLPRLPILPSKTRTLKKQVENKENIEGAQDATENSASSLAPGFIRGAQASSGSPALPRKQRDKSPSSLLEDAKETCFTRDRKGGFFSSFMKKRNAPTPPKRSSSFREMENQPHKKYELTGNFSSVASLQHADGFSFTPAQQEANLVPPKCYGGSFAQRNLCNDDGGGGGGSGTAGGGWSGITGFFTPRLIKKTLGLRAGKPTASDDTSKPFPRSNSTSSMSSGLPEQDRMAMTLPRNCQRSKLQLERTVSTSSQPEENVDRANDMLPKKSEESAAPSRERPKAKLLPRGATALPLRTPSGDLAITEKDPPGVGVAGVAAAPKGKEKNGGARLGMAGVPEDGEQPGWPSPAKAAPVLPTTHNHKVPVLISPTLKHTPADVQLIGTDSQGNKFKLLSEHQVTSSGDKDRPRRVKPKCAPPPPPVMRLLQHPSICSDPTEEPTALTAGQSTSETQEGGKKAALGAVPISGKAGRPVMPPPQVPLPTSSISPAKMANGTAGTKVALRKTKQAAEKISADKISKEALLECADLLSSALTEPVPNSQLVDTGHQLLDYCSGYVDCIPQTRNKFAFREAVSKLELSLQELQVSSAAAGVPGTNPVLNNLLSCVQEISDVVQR
structure (smiles),measurement,setting,value
COc1cnccc1Nc1nc(-c2nn(Cc3c(F)cc(OCCO)cc3F)c3ccccc23)ncc1OC,residual activity,[1],100%
same,residual activity,[2],100%
same,residual activity,[3],87%
same,inhibition,[4],24%
same,residual activity,[5],100%
same,residual activity,[6],84%
same,residual activity,[7],100%
same,inhibition,[8],8%
same,Cell Proliferation IC50,HeLa,63 nM
same,residual activity,[9],83%
same,inhibition,[10],10%
same,inhibition,[11],4%
same,inhibition,[12],26%
same,residual activity,[13],100%
same,inhibition,[14],32%
same,residual activity,[15],100%
same,residual activity,[16],97%
same,residual activity,[17],99%
same,residual activity,[18],88%
same,residual activity,[19],94%
same,residual activity,[20],100%
same,residual activity,[21],100%
same,Kd,[22],> 30000 nM
same,residual activity,[22]; Compound concentration 1.0 uM,26%
same,residual activity,[23],100%
same,inhibition,[24],60%
same,residual activity,[25],90%
same,residual activity,[26],100%
same,inhibition,[27],60.2%
same,residual activity,[28],100%
same,residual activity,[29],100%
same,residual activity,[30],100%
same,residual activity,[31],53%
same,Cell Proliferation IC50,MDA-MB-468,1000 nM
same,residual activity,[32],92%
same,residual activity,[33],87%
same,residual activity,[34],89%
same,residual activity,[35],100%
same,inhibition,[36],67%
same,residual activity,[37],87%
same,residual activity,[38],92%
same,residual activity,[39],72%
same,residual activity,[40],93%
same,residual activity,[41],99%
same,Cell Proliferation IC50,MDA-MB-453,1200 nM
same,inhibition,[42],4%
same,residual activity,[43],69%
same,residual activity,[44],57%
same,residual activity,[44]; Compound concentration 1.0 uM,0.6%
